Test results reported in publication PMC4287394 (Clinical cancer research : an official journal of the …, 2014).

Legend:
[1] = Plasma pharmacokinetics in patients; type: in vivo, human; details: for half-life / AUC(0-t) / Cmax / Tmax: human, plasma; for AUC(0-t): AUC 0-24, geometric mean; for Cmax: geometric mean; for Tmax: median
[2] = system: phospho-AKT (Ser473) in platelet-rich plasma; test: Phospho-AKT in platelet-rich plasma; type: in vivo, human
[3] = system: phospho-S6 (Ser235/236) in tumor tissue; test: Phospho-S6 immunohistochemistry in paired tumor biopsies; type: in vivo, human
[4] = system: PI3K signaling; test: Multimodal pharmacodynamic assessment; type: in vivo, human; details: regardless of molecular genetic status
[5] = system: purified recombinant human PI3K p110α; details: read-out: IC50 p110α; purified recombinant human PI3K isoforms; cited from earlier work
[6] = system: purified recombinant human PI3K p110β; details: read-out: IC50 p110β; purified recombinant human PI3K isoforms; cited from earlier work
[7] = system: purified recombinant human PI3K p110δ; details: read-out: IC50 p110δ; purified recombinant human PI3K isoforms; cited from earlier work
[8] = system: U87MG glioblastoma xenografts; details: oral dose of 150mg/kg; U87MG glioblastoma xenograft; cited from earlier work
[9] = system: IGROV1 ovarian cancer xenografts; details: oral dose of 150mg/kg; IGROV1 ovarian cancer xenograft; cited from earlier work
[10] = oral, 15 mg, Day 1, 15 mg QD, 4 patients
[11] = oral, 15 mg, Day 15, 15 mg QD, 4 patients
[12] = oral, 30 mg, Day 1, 30 mg QD, 3 patients
[13] = oral, 30 mg, Day 15, 30 mg QD, 3 patients
[14] = oral, 45 mg, Day 1, 45 mg QD, 4 patients
[15] = oral, 45 mg, Day 15, 45 mg QD, 4 patients
[16] = oral, 60 mg, Day 1, 60 mg QD, 4 patients
[17] = oral, 60 mg, Day 15, 60 mg QD, 3 patients
[18] = oral, 80 mg, Day 1, 80 mg QD, 3 patients
[19] = oral, 80 mg, Day 15, 80 mg QD, 3 patients
[20] = oral, 100 mg, Day 1, 100 mg QD, 5 patients
[21] = oral, 100 mg, Day 15, 100 mg QD, 3 patients
[22] = oral, 130 mg, Day 1, 130 mg QD, 3 patients
[23] = oral, 130 mg, Day 15, 130 mg QD, 3 patients
[24] = oral, 180 mg, Day 1, 180 mg QD, 3 patients
[25] = oral, 180 mg, Day 15, 180 mg QD, 3 patients
[26] = oral, 245 mg, Day 1, 245 mg QD, 3 patients
[27] = oral, 245 mg, Day 15, 245 mg QD, 3 patients
[28] = oral, 330 mg, Day 1, 330 mg QD, 17 patients
[29] = oral, 330 mg, Day 15, 330 mg QD, 17 patients
[30] = oral, 340 mg, Day 1, 340 mg QD, 7 patients
[31] = oral, 340 mg, Day 15, 340 mg QD, 6 patients
[32] = oral, 400 mg, Day 1, 400 mg QD, 1 patient
[33] = oral, 450 mg, Day 1, 450 mg QD, 3 patients
[34] = oral, 450 mg, Day 15, 450 mg QD, 3 patients

## CS(=O)(=O)N1CCN(Cc2cc3nc(-c4cccc5[nH]ncc45)nc(N4CCOCC4)c3s2)CC1 [pictilisib, 2-(1H-indazol-4-yl)-6-(4-methanesulfonyl-piperazin-1-ylmethyl)-4-morpholin-4-yl-t hieno[3,2-d]pyrimidine]
[1]; across the dose levels studied, 15-450mg
  Increase in exposure (Cmax and AUC0-24) with dose: dose-proportional
[1]; oral
  half-life: 13.1 to 24.1 h
[1]; oral, 15 mg
  half-life: 19.2 h
[1]; [10]
  AUC(0-t): 0.978 µM·h
  Cmax: 112 nM
  Tmax: 2 h
[1]; [11]
  AUC(0-t): 1.35 µM·h
  Cmax: 116 nM
  Tmax: 1.5 h
[1]; oral, 30 mg
  half-life: 24.1 h
[1]; [12]
  AUC(0-t): 1.18 µM·h
  Cmax: 144 nM
  Tmax: 2 h
[1]; [13]
  AUC(0-t): 1.9 µM·h
  Cmax: 179 nM
  Tmax: 1 h
[1]; oral, 45 mg
  half-life: 19.5 h
[1]; [14]
  AUC(0-t): 2.77 µM·h
  Cmax: 362 nM
  Tmax: 2 h
[1]; [15]
  AUC(0-t): 4.09 µM·h
  Cmax: 436 nM
  Tmax: 2 h
[1]; oral, 60 mg
  half-life: 18.8 h
[1]; [16]
  AUC(0-t): 2.02 µM·h
  Cmax: 242 nM
  Tmax: 2 h
[1]; [17]
  AUC(0-t): 2.78 µM·h
  Cmax: 270 nM
  Tmax: 3 h
[1]; oral, 80 mg
  half-life: 20.1 h
[1]; [18]
  AUC(0-t): 5.45 µM·h
  Cmax: 632 nM
  Tmax: 2 h
[1]; [19]
  AUC(0-t): 9.86 µM·h
  Cmax: 779 nM
  Tmax: 3 h
[1]; oral, 100 mg
  half-life: 14.6 h
[1]; [20]
  AUC(0-t): 3.19 µM·h
  Cmax: 362 nM
  Tmax: 2 h
[1]; [21]
  AUC(0-t): 5.64 µM·h
  Cmax: 751 nM
  Tmax: 2 h
[1]; oral, 130 mg
  half-life: 13.1 h
[1]; [22]
  AUC(0-t): 2.99 µM·h
  Cmax: 359 nM
  Tmax: 2 h
[1]; [23]
  AUC(0-t): 5.03 µM·h
  Cmax: 457 nM
  Tmax: 1 h
[1]; oral, 180 mg
  half-life: 17.1 h
[1]; [24]
  AUC(0-t): 5.95 µM·h
  Cmax: 611 nM
  Tmax: 2 h
[1]; [25]
  AUC(0-t): 8.25 µM·h
  Cmax: 783 nM
  Tmax: 1 h
[1]; oral, 245 mg
  half-life: 16.8 h
[1]; [26]
  AUC(0-t): 8.18 µM·h
  Cmax: 994 nM
  Tmax: 2 h
[1]; [27]
  AUC(0-t): 11.3 µM·h
  Cmax: 1370 nM
  Tmax: 1 h
[1]; oral, 330 mg
  half-life: 15.7 h
[1]; [28]
  AUC(0-t): 14.4 µM·h
  Cmax: 1520 nM
  Tmax: 2 h
[1]; [29]
  AUC(0-t): 22.8 µM·h
  Cmax: 2070 nM
  Tmax: 3 h
[1]; oral, 340 mg
  half-life: 20.9 h
[1]; [30]
  AUC(0-t): 14.9 µM·h
  Cmax: 1680 nM
  Tmax: 2 h
[1]; [31]
  AUC(0-t): 16.5 µM·h
  Cmax: 1950 nM
  Tmax: 1 h
[1]; oral, 400 mg
  half-life: 14.8 h
[1]; [32]
  AUC(0-t): 15.6 µM·h
  Cmax: 1650 nM
  Tmax: 2 h
[1]; oral, 450 mg
  half-life: 15 h
[1]; [33]
  AUC(0-t): 13.9 µM·h
  Cmax: 1950 nM
  Tmax: 2 h
[1]; [34]
  AUC(0-t): 23.5 µM·h
  Cmax: 2640 nM
  Tmax: 2 h
[1]; po, fasting, all doses
  Tmax: 2 h
[2]; 1 to 3 hours post-dose at the RP2D (330mg)
  Inhibition of phospho-AKT level in platelet rich plasma: up to 90%
[2]; 3 hours post-dose at the MTD
  Suppression of phosphorylated serine-473 AKT in platelet rich plasma: > 90%
[2]; 24 hours post-dose at the RP2D (330mg)
  Phospho-AKT in platelet rich plasma, sustained effect, % of baseline: 50%
[3]; patient with cKIT exon 9 mutant gastrointestinal stromal tumor, 450mg once-daily
  Reduction in tumor phospho-S6 expression: 75%
[3]; platinum-refractory ovarian cancer patient, 100mg once-daily 21/28
  Reduction in tumor phospho-S6 expression: 56%
[4]
  Dose levels with on-target pharmacodynamic activity: ≥ 100 mg
[5]
  IC50: 3 nM
[6]
  IC50: 33 nM
[7]
  IC50: 3 nM
[8]
  growth inhibition: 98%
[9]
  growth inhibition: 80%
